Source: paper PMC5106528, “High-Throughput Toxicity and Phenotypic Screening of 3D Human Neural Progenitor Cell Cultures on a Microarray Chip Platform” (Stem Cell Reports, 2016)
Where two headings read alike, the source gives them in different places.

Key:
[1] = system: undifferentiated ReNcell VM NPCs; assay: cells; settings: for IC50: Homo sapiens, ReNcell VM
Method: (§1) On-chip cultures of undifferentiated and 10-day differentiated NPCs were stamped with WellChips filled with compound-containing solutions and incubated for 72 hr prior to viability assessment. Vehicle-control normalized viabilities were plotted against compound concentration to generate dose-response plots (Figures 5A and S4). […] The sigmoidal fits for undifferentiated and differentiating NPCs were compared to assess whether differential sensitivities (i.e., different IC50 values) existed for the screened compounds.
(§2) Cell viability was determined in 3D on-chip cultures using a mammalian cell viability assay (LIVE/DEAD, Invitrogen). Prior to the assay, dead cell controls were prepared with 30 min incubation in a WellChip containing either […] 0.5% (w/v) saponin-DMEM/F12 medium in its microwells. […] After staining, PillarChips were rinsed twice with warm DPBS and incubated in DPBS containing 50 mM trehalose (Sigma) for 10 min before rapid drying with nitrogen and storage in the dark. Dried PillarChips were imaged with a Thermo Scientific Cellomics ArrayScan VTI high-content system.
(§3) Undifferentiated and differentiated microchip cultures were prepared as described above. Chemicals were purchased from Sigma or the NIH Small Molecule Repository (Table S2). Concentrated stocks were prepared and diluted into ReNcell Maintenance Medium to prepare the highest screened concentration solution for each compound. Four-fold serial dilutions were made in ReNcell Maintenance Medium, with all solutions having a final concentration of 0.5% or 1% DMSO (v/v) and 20 μg/mL Matrigel. For undifferentiated cultures, the solutions also contained 20 ng/mL of EGF and FGF2. These solutions were printed into WellChips, covered with a gas-permeable membrane, and warmed at 37°C for at least 5 min before stamping with cells. Each WellChip contained six compounds each at six concentrations (n = 10 biological replicates for each concentration) and the appropriate medium containing 0.5% or 1% DMSO for vehicle and dead controls (n = 32 biological replicates per control). PillarChip cultures were incubated with compounds for 72 hr with daily medium exchange to freshly prepared WellChips containing compounds at the appropriate concentrations. […] On-chip toxicity screens were repeated three times for undifferentiated and differentiated cultures. […]

[2] = system: differentiating ReNcell VM NPCs; assay: cells; settings: for IC50: Homo sapiens, ReNcell VM
Method: as §1, §2, §3

[3] = system: undifferentiated ReNcell VM NPCs; assay: On-chip proliferation assay (EdU incorporation), undifferentiated NPCs; assay type: cell-based, human; settings: for IC50: Homo sapiens, ReNcell VM, undifferentiated, 72 hr exposure, EdU for the final 24 hr, sigmoidal fit; for Effect on proliferation of NPC cultures (in words): state not specified
Source text: (§4) Differential toxic effects could be explained, in part, as a consequence of the different proliferative states between the undifferentiated and differentiating NPCs. To this end, the thymidine analog, 5-ethynyl-2′-deoxyuridine (EdU), was used to detect actively proliferating cells on-chip following exposure to compounds or vehicle control to determine dose-response effects on proliferation (Figures 5B and S5), and sigmoidal curves were fit, when appropriate, to obtain IC50 values (Table 1). We found ∼60% of undifferentiated NPCs incorporated EdU over a 24-hr period as opposed to ∼3% of differentiating cultures.
(§5) Undifferentiated and differentiating cultures were screened for toxicity as described previously, except that after the first 48 hr of exposure 10 μM EdU (Click-iT EdU, Invitrogen) was added to the compound-containing medium for the final 24 hr. After 72 hr, on-chip cultures were fixed and processed as described previously for on-chip immunofluorescence; however, instead of antibody staining the cultures were incubated with solution containing Alexa Fluor 488-azide for 30 min as specified in the product manual. Cultures were then rinsed with DPBS for 30 min, incubated in DPBS with Hoechst 33342 (5 μg/mL) for 30 min, and washed in DPBS for 30 min before proceeding with a trehalose wash and drying as described previously. Nuclei were selected using Cellomics software from blue channel images to create a mask, which was used for identification of fluorescently labeled EdU in the green channel for quantification of actively proliferating cells over the 24-hr EdU exposure.

[4] = system: differentiating ReNcell VM NPCs; assay: cells; assay type: cell-based, human; settings: Homo sapiens, ReNcell VM, differentiating, 72 hr exposure, EdU for the final 24 hr, sigmoidal fit
Source text: as §4, §5

[5] = 72 h, read-out: Viability Effects Undifferentiated IC50
[6] = 72 h, read-out: Viability Effects Undifferentiated log(IC50 ± SEM) (converted)
[7] = read-out: Viability Effects Differentiating IC50
[8] = read-out: Viability Effects Differentiating log(IC50 ± SEM) (converted)
[9] = read-out: Proliferation Effects Undifferentiating IC50
[10] = read-out: Proliferation Effects Undifferentiating log(IC50 ± SEM) (converted)
[11] = read-out: Proliferation Effects Differentiating IC50
[12] = read-out: Proliferation Effects Differentiating log(IC50 ± SEM) (converted)
[13] = undifferentiated cultures, 72 hr
[14] = differentiating cultures, 72 hr

Row | SMILES | Normalized viability at Cmax, Undifferentiated, Mean ± SEM [1] | IC50 [1, 5] [µM] | IC50 [1, 6] [µM] | Normalized viability at Cmax, Differentiating, Mean ± SEM [2] | IC50 [3, 10] [µM] | IC50 [4, 12] [µM] | Normalized viability at Cmax, Undifferentiated, Mean ± SEM ([1]; human, 72 h) | Normalized viability at Cmax, Differentiating, Mean ± SEM ([2]; human, 72 h) | Effect on cell viability (in words) [1, 13] | Effect on cell viability (in words) [2, 14] | other results
1 | C[n+]1ccc(-c2cc[n+](C)cc2)cc1 [Paraquat] | -0.02 ± 0.03 | 57 | 63.1 | 0.05 ± 0.02 | 58.9 | 30.2 | – | – | – | – | IC50 [2, 7]: 41 µM; IC50 [2, 8]: 40.7 µM; IC50 [3, 9]: 59 µM; IC50 [4, 11]: 30 µM
2 | COc1cccc2c1C(=O)c1c(O)c3c(c(O)c1C2=O)C[C@@](O)(C(=O)CO)C[C@@H]3O[C@H]1C[C@H](N)[C@H](O)[C@H](C)O1 [Doxorubicin] | – | 0.8 | 0.794 | – | < 0.1 | < 0.1 | 0.05 ± 0.13 | 0.11 ± 0.16 | – | – | IC50 [2, 7]: 2.7 µM; IC50 [2, 8]: 2.75 µM
3 | CN(C)CCOC(c1ccccc1)c1ccccc1 [Diphenhydramine] | – | – | – | – | – | – | – | – | – | – | Cytotoxicity (in words) [1]: no cytotoxicity at functionally relevant concentrations
4 | CC(=O)[O-].CC(=O)[O-].[Pb+2] [Lead Acetate] | – | – | – | – | – | – | – | – | did not reduce cell viability | did not reduce cell viability | –
5 | CCCC(CCC)C(=O)O [Valproic Acid] | – | – | – | – | – | – | 0.99 ± 0.08 | 1.09 ± 0.10 | – | – | –
6 | C[C@@H]1C[C@H]2[C@@H]3CCC4=CC(=O)C=C[C@]4(C)[C@@]3(F)[C@@H](O)C[C@]2(C)[C@@]1(O)C(=O)CO [Dexamethasone] | – | – | – | – | – | – | 1.35 ± 0.33 | 1.08 ± 0.16 | – | – | –
7 | O=C(O)C[C@H](O)C[C@H](O)/C=C/c1c(C2CC2)nc2ccccc2c1-c1ccc(F)cc1 [Pitavistatin] | 0.14 ± 0.11 | 5.4 | 5.37 | 1.16 ± 0.07 | 1.95 | 0.977 | – | – | – | – | Effect on cell viability (in words) [1]: cytotoxic only to undifferentiated NPCs; Effect on cell viability (in words) [2]: did not decrease the viability; IC50 [3, 9]: 2 µM; Effect on proliferation of NPC cultures (in words) [3]: inhibited proliferation; IC50 [4, 11]: 0.98 µM
8 | CC1(C)C[C@@H]1C(=O)N/C(=C\CCCCSC[C@H](N)C(=O)O)C(=O)O [Cilastatin] | – | – | – | – | – | – | – | – | had no effect | had no effect | Effect on proliferation of NPC cultures (in words) [3]: did not
9 | O=C1CN=C(c2ccccc2)c2cc([N+](=O)[O-])ccc2N1 [Nitrazepam] | 1.16 ± 0.13 | – | – | 1.07 ± 0.07 | – | – | – | – | – | – | –
10 | [Cl][Mn][Cl] [Manganese Chloride] | – | – | – | – | – | – | – | – | did not reduce cell viability | did not reduce cell viability | –
